Assay results published in patent US20230120597A1, “CO-AGONISTS AT GLP-1 AND GIP RECEPTORS SUITABLE FOR ORAL DELIVERY” (Novo Nordisk A/S, priority 2020, published 2023).
Read-outs that look alike come from different tables or passages of the source. Starred links: 1 amine or outer side, 2 acyl side, 3 side chain; linkers in the order of their positions; H or OH if unused. Non-standard residues stand in square brackets, D forms with d. Residues, ends and D or L forms follow the SMILES beside them. Groups on a side chain read outwards from the residue. *: point of attachment. C18 diacid = O=C(O)CCCCCCCCCCCCCCCCC(=O)*; γGlu = O=C(O)[C@H](CCC(=O)[*:2])N[*:1]; εLys = N[C@@H](CCCCN[*:1])C(=O)[*:2]; Aib = CC(C)(N)C(=O)O

Columns and labels:
[1] = target: T1, human GIP receptor (Homo sapiens, UniProt P48546); experiment: In vitro functional potency, CRE luciferase reporter gene assay, whole BHK cells expressing hGIPR; format: cell-based; conditions: BHK CRE luc2P hGIPR cells
T1 construct: expressed in transfected cells; host or cells: BHK (parent line BHKTS13), clone BHK CRE luc2P hGIPR
T1 sequence (P48546 22-466): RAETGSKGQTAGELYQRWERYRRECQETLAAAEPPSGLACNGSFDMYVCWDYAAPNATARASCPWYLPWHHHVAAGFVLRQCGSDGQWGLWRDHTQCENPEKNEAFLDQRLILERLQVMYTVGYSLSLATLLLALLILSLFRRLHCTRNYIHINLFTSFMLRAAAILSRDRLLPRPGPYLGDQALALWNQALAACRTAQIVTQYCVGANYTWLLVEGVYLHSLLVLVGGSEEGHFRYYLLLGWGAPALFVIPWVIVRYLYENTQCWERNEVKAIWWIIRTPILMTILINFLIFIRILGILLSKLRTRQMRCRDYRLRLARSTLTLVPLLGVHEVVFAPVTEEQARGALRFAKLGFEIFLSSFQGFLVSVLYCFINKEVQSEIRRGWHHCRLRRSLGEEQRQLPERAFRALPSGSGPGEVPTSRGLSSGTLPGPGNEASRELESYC
Experimental: (§1) The in vitro functional potency is the measure of target receptor activation in a whole cell assay.
(§2) In vitro functional potency was determined by measuring the response of the target receptor in a reporter gene assay in individual cell lines. […] When the respective receptor is activated, it results in the production of cAMP, which in turn results in expression of the luciferase protein. When assay incubation is completed, luciferase substrate (luciferin) is added resulting in the enzymatic conversion of luciferin to oxyluciferin and producing bioluminescence. The luminescence is measured as the readout for the assay.
(§3) The cells lines used in these assays were BHK cells with BHKTS13 as a parent cell line. The cell lines were derived from a clone containing the CRE luciferase element and were established by further transfection with the respective human receptor to obtain the relevant cell line: BHK CRE luc2P hGLP-1R or BHK CRE luc2P hGIPR. The cells were cultured at 37° C. with 5% CO2 in Cell Culture Medium. They were aliquoted and stored in liquid nitrogen. The cells were kept in continuous culture and were seeded out the day before each assay.
(§4) GLP-1R Cell Culture Medium consisted of DMEM medium with 10% FBS, 500 μg/mL G418, and 300 μg/mL hygromycin. GIPR Cell Culture Medium consisted of DMEM medium with 10% FBS, 400 μg/mL G418, and 300 μg/mL hygromycin. Assay Buffer consisted of DMEM w/o phenol red, 10 mM Hepes, 1× Glutamax. 1% ovalbumin, and 0.1% Pluronic F-68 with the addition of HSA at twice the final assay concentration.
(§5) Procedure • 1) Cells were plated at 5000 cells/well and incubated overnight in the assay plate. • 2) Cells were washed once in DPBS. • 3) Stocks of the test compounds and reference compounds in concentrations ranging from […] were diluted 1:150 in Assay Buffer. Compounds were then diluted 1:10 in column 1 of a 96 deep well dilution plate and then carried across the row creating a 3.5 fold, 12 point dilution curve. • 4) Assay Buffer (50 μl aliquot) with or without HSA was added to each well in the assay plate. • 5) A 50 μl aliquot of compound or blank was transferred from the dilution plate to the assay plate containing the Assay Buffer with or without HSA. • 6) The assay plate was incubated for 3 h in a 5% CO2 incubator at 37° C. • 7) The cells were washed once with DPBS. • 8) A 100 μl aliquot of DPBS was added to each well of the assay plate. • 9) A 100 μl aliquot of steadylite plus reagent (light sensitive) was added to each well of the assay plate. • 10) Each assay plate was covered with aluminum foil to protect it from light and shaken at 250 RPM for 30 min at room temperature. • 11) Each assay plate was read in a microtiter plate reader.
(§6) The data from the microtiter plate reader was first regressed in an Excel in order to calculate the x-axis, log scale concentrations based on the individual test compound's stock concentration and the dilutions of the assay. […] The software performs a non-linear regression (log(agonist) vs response). A minimum of two replicates was measured for each sample. The reported values are averages of the replicates.

[2] = target: T2, human GLP-1 receptor (Homo sapiens, UniProt P43220); experiment: In vitro functional potency, CRE luciferase reporter gene assay, whole BHK cells expressing hGLP-1R; format: cell-based; conditions: BHK CRE luc2P hGLP-1R cells
T2 construct: expressed in transfected cells; host or cells: BHK (parent line BHKTS13), clone BHK CRE luc2P hGLP-1R
T2 sequence (P43220 24-463): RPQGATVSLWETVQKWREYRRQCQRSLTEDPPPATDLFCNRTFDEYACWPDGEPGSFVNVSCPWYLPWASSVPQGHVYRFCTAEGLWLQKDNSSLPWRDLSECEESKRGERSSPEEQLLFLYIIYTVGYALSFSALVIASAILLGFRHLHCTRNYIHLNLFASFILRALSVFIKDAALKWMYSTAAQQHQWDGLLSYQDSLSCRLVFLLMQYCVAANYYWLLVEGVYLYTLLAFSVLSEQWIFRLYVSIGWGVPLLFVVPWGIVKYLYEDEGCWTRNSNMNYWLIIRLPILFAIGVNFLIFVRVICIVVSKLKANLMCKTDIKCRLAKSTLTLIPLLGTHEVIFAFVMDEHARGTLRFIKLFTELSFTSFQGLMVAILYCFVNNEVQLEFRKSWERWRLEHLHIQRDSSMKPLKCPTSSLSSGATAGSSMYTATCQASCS
Experimental: as §1, §2, §3, §4, §5, §6

[3] = Pharmacokinetic study in dogs, oral dosing of tablet compositions with SNAC; format: in vivo, Beagle dogs; conditions: dog, in vivo, po
Experimental: The purpose of this example is to determine the half-life and plasma exposure in vivo of the compounds of the present invention after p.o. administration to beagle dogs, i.e. the terminal half-life and concentration of test substance that reaches circulation with time. This is done in a pharmacokinetic (PK) study, where these parameters of the compound in question are determined. By terminal half-life is generally meant the period of time it takes to halve a certain plasma concentration, measured after the initial distribution phase.
The amount of SNAC in the tablet composition was 100-300 mg, the amount of magnesium stearate in the tablet composition was 7.7 mg, and the target amount of each test substance in the tablet composition was 3-4 mg.
Male beagle dogs, 1-7 years of age and weighing 9-17 kg during the study period, were included in the study. The dogs were dosed in a fasting state. The dogs were group housed in pens (12 hours light: 12 hours dark), and fed individually and restrictedly once daily with Royal Canin Medium Adult dog food (Royal Canin Products, China Branch, or Brogaarden A/S, Denmark). The dogs were used for repeated PK studies with a suitable wash-out period between successive dosing. An appropriate acclimatization period was given prior to initiation of the first PK study. All handling, dosing, and blood sampling of the animals were performed by trained and skilled staff. Before the studies, the dogs were fasted overnight and from 0 to 4 hours after dosing. The dogs were restricted to water 1 hour before dosing until 4 hours after dosing, but otherwise had ad libitum access to water during the whole period.
The compositions were administered by a single oral dosing to the dogs in groups of 6-8 dogs. […] The mouth was then closed, and 10 mL of tap water was given by syringe or gavage to facilitate swallowing of the tablet.
One blood sample was drawn before dosing, and additional samples were drawn at predefined time points after dosing for up to 240 hours, such as up to 10 hours, to adequately cover the full plasma concentration-time absorption profile of the test substance. For each blood sample time point, approximately 0.8 mL of whole blood was collected in a 1.5 mL EDTA-coated tube, which was gently turned to mix the sample with EDTA. Blood samples were collected in EDTA buffer (8 mM) and then centrifuged at 4° C. 2000 g for 10 minutes. Plasma was pipetted into Micronic tubes on dry ice, and kept at −20° C. or lower until analysis. Blood samples were taken as appropriate, for example from a venflon in the cephalic vein in the front leg for the first 2 hours and then with syringe from the jugular vein for the rest of the time points. The first few drops were allowed to drain from the venflon to avoid heparin saline from the venflon in the sample.
All blood samples were collected into test tubes containing EDTA for stabilisation and kept on ice until centrifugation. Plasma was separated from whole blood by centrifugation and the plasma was stored at −20° C. or lower until analysis.
The plasma was analysed for test substance using LC-MS (Liquid Chromatography-Mass Spectrometry) as known to the person skilled in the art. […] RP-HPLC separation was achieved using a linear gradient of 1:1 acetonitrile/methanol in 1% aqueous formic acid using either: a Phenomenex Onyx Monolithic C18 column (50×2.0 mm) and a flow rate of 0.8 mL/min at 30° C.; or an Agilent Poroshell 120 SB-C18 column (50×2.1 mm, 2.7 μm) at a flow rate of 0.4 mL/min at 60° C. The mass spectrometer was operated in either positive ionization SIM mode or positive ionization PRM mode.
For each individual animal, a plasma concentration-time profile was analysed by a non-compartmental model in Pharsight Phoenix WinNonLin ver.

| SMILES | EC50 ([1]; 0% HSA, read-out: hGIPR, CRE Luc 0% HSA EC50) [pM] | EC50 ([1]; hGIPR, CRE Luc 1% HSA EC50, 1% HSA) [pM] | EC50 ([2]; 0% HSA, read-out: hGLP-1R, CRE Luc 0% HSA EC50) [pM] | EC50 ([2]; hGLP-1R, CRE Luc 1% HSA EC50, 1% HSA) [pM] | AUC/Dose [3] [kg·h/L] | Cmax/Dose [3] [kg/L] |
| --- | --- | --- | --- | --- | --- | --- |
| CC(C)C[C@H](NC(=O)[C@H](CC(C)C)NC(=O)[C@H](Cc1c[nH]c2ccccc12)NC(=O)[C@H](CC(N)=O)NC(=O)[C@@H](NC(=O)[C@H](Cc1ccccc1)NC(=O)[C@H](C)NC(=O)[C@H](CCC(N)=O)NC(=O)[C@H](C)NC(=O)[C@H](C)NC(=O)[C@H](CCC(N)=O)NC(=O)[C@H](CCCCNC(=O)[C@@H](N)CCCCNC(=O)[C@@H](N)CCCCNC(=O)CC[C@H](NC(=O)CCCCCCCCCCCCCCCCC(=O)O)C(=O)O)NC(=O)[C@H](CCC(=O)O)NC(=O)[C@H](CC(C)C)NC(=O)[C@H](Cc1ccc(O)cc1)NC(=O)[C@H](Cc1ccc(O)cc1)NC(=O)[C@H](CO)NC(=O)[C@H](Cc1ccc(O)cc1)NC(=O)[C@H](CC(=O)O)NC(=O)[C@H](CO)NC(=O)[C@@H](NC(=O)[C@H](Cc1ccccc1)NC(=O)[C@@H](NC(=O)CNC(=O)[C@H](CCC(=O)O)NC(=O)C(C)(C)NC(=O)[C@@H](N)Cc1ccc(O)cc1)[C@@H](C)O)[C@@H](C)O)C(C)C)C(=O)N[C@@H](C)C(=O)NCC(=O)NCC(=O)N1CCC[C@H]1C(=O)N[C@@H](CO)C(=O)N[C@@H](CO)C(=O)NCC(=O)N[C@@H](C)C(=O)N1CCC[C@H]1C(=O)N1CCC[C@H]1C(=O)N1CCC[C@H]1C(=O)N[C@@H](CO)C(N)=O [Compound No. 4] (H-Y[Aib]EGTFTSDYSYYLEK([εLys-εLys-γGlu-C18 diacid])QAAQAFVNWLLAGGPSSGAPPPS-NH2; N-terminus assumed) | 8.5 | 294 | 6.6 | 484 |  |  |
| CC[C@H](C)[C@H](NC(=O)[C@H](Cc1ccccc1)NC(=O)[C@H](CCC(=O)O)NC(=O)[C@H](CCCNC(=N)N)NC(=O)[C@H](C)NC(=O)[C@H](C)NC(=O)[C@H](CCC(N)=O)NC(=O)[C@H](CCC(=O)O)NC(=O)[C@H](CCC(=O)O)NC(=O)[C@H](CC(C)C)NC(=O)[C@H](CC(C)C)NC(=O)[C@H](CCCCNC(=O)[C@@H](N)CCCCNC(=O)[C@@H](N)CCCCNC(=O)CC[C@H](NC(=O)CCCCCCCCCCCCCCCCC(=O)O)C(=O)O)NC(=O)[C@H](CO)NC(=O)[C@H](Cc1ccc(O)cc1)NC(=O)[C@H](CC(=O)O)NC(=O)[C@H](CO)NC(=O)[C@@H](NC(=O)[C@H](Cc1ccccc1)NC(=O)[C@@H](NC(=O)CNC(=O)[C@H](CCC(=O)O)NC(=O)C(C)(C)NC(=O)[C@@H](N)Cc1ccc(O)cc1)[C@@H](C)O)[C@@H](C)O)C(=O)N[C@@H](CCC(=O)O)C(=O)N[C@@H](Cc1c[nH]c2ccccc12)C(=O)N[C@@H](CC(C)C)C(=O)N[C@@H](CC(C)C)C(=O)N[C@@H](C)C(=O)NCC(=O)NCC(=O)N1CCC[C@H]1C(=O)N[C@@H](CO)C(=O)N[C@@H](CO)C(=O)NCC(=O)N[C@@H](C)C(=O)N1CCC[C@H]1C(=O)N1CCC[C@H]1C(=O)N1CCC[C@H]1C(=O)N[C@@H](CO)C(=O)O [Compound No. 40] |  |  |  |  | 27.0 |  |
| CC[C@H](C)[C@H](NC(=O)[C@H](Cc1ccccc1)NC(=O)[C@H](CCC(=O)O)NC(=O)[C@H](CCCNC(=N)N)NC(=O)[C@H](C)NC(=O)[C@H](C)NC(=O)[C@H](CCC(N)=O)NC(=O)[C@H](CCC(=O)O)NC(=O)[C@H](CCC(=O)O)NC(=O)[C@H](CC(C)C)NC(=O)[C@H](CC(C)C)NC(=O)[C@@H](NC(=O)[C@H](CO)NC(=O)[C@H](Cc1ccc(O)cc1)NC(=O)[C@H](CC(=O)O)NC(=O)[C@H](CO)NC(=O)[C@@H](NC(=O)[C@H](Cc1ccccc1)NC(=O)[C@@H](NC(=O)CNC(=O)[C@H](CCC(=O)O)NC(=O)C(C)(C)NC(=O)[C@@H](N)Cc1ccc(O)cc1)[C@@H](C)O)[C@@H](C)O)[C@@H](C)CC)C(=O)N[C@@H](CCC(=O)O)C(=O)N[C@@H](Cc1c[nH]c2ccccc12)C(=O)N[C@@H](CC(C)C)C(=O)N[C@@H](CC(C)C)C(=O)N[C@@H](C)C(=O)NCC(=O)NCC(=O)N1CCC[C@H]1C(=O)N[C@@H](CO)C(=O)N[C@@H](CCCCNC(=O)[C@@H](N)CCCCNC(=O)[C@@H](N)CCCCNC(=O)CC[C@H](NC(=O)CCCCCCCCCCCCCCCCC(=O)O)C(=O)O)C(=O)NCC(=O)N[C@@H](C)C(=O)N1CCC[C@H]1C(=O)N1CCC[C@H]1C(=O)N1CCC[C@H]1C(=O)N[C@@H](CO)C(=O)O [Compound No. 43] (H-Y[Aib]EGTFTSDYSILLEEQAAREFIEWLLAGGPSK([εLys-εLys-γGlu-C18 diacid])GAPPPS-OH) |  |  |  |  | 21.4 | 0.22 |
